Results taken from patent publication US4537773A, “α-Aminoboronic acid derivatives” (E. I. Du Pont de Nemours and Company, priority 1983, dated 1985).
Counter-ions that a name gives are not always drawn.

Assays:
Leaf Hopper = assay: Insecticidal activity, leaf hopper; type: in vivo; settings: application rate of 5 lb./acre
Ant = assay: Insecticidal activity, ant feeding; type: in vivo; settings: application rate of 5 lb./acre
Bollworm = assay: Insecticidal activity, bollworm; type: in vivo; settings: application rate of 5 lb./acre
Mite = assay: Insecticidal activity, mite; type: in vivo; settings: application rate of 5 lb./acre
Bean aphid = assay: Insecticidal activity, bean aphid; type: in vivo; settings: application rate of 5 lb./acre
[1] = molecular target: T1, Leucine aminopeptidase (Microsomal) (LAPM) (Sus scrofa, UniProt P15145); assay: IC50 with leucine aminopeptidase (microsomal); type: biochemical, hog; settings: 72 hours at 0°-5°, pH 7.2, substrate (L)-leucine-β-napthylamide, fluorescence
T1 construct: (LAPM) from hog kidney; from tissue; host or cells: hog kidney
T1 sequence (P15145 1-963): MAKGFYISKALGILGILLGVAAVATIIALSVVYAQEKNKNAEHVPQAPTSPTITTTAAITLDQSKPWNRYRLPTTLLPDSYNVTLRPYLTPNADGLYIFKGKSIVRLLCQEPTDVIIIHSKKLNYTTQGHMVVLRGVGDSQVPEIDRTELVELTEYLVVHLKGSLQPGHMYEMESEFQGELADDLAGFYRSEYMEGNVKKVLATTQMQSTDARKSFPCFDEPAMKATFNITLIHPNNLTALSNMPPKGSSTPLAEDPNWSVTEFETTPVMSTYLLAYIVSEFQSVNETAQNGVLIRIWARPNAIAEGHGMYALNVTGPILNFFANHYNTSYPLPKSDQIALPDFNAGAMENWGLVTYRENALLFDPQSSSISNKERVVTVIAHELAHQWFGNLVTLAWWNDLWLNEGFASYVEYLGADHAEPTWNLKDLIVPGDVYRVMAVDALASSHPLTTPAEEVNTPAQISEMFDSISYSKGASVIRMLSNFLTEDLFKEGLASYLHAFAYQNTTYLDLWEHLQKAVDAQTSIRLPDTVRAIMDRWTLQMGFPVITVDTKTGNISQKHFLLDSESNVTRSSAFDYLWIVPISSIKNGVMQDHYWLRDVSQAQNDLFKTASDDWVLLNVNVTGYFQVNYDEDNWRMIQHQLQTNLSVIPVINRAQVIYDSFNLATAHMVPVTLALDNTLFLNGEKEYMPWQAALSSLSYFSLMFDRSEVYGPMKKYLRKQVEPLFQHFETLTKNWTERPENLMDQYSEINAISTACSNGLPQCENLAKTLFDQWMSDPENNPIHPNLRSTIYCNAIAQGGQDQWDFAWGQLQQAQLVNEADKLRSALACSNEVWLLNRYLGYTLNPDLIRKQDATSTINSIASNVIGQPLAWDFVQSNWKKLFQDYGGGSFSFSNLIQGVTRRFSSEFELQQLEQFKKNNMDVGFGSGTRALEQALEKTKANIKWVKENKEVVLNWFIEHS
From the text: (§1) An IC50 value represents an approximation of the concentration of enzyme inhibitor required to inhibit enzyme activity by fifty percent. These values represent acceptable approximations of the inhibition constant KI, the dissociation constant in the following equation: [formula] where [E] is the concentration of enzyme, [I] is the concentration of inhibitor and [EI] is the concentration of enzyme/inhibitor complex.
(§2) Determination of IC50 values for LAPC and LAPM was accomplished by spectrophotometrically or fluorometrically following the rate of formation of p-nitroaniline or β-naphthylamine from hydrolysis of (L)-leucine-p-nitroanilide or (L)-leucine-β-napthylamide, respectively, in the presence of active enzyme. IC50 values for HEDA were determined by monitoring, via high pressure liquid chromatography, the formation of destyr-enkephalin from leu-enkephalin.
Assay mixtures were prepared containing 0.613 μg LAPM, 10 μg/mL bovine serum albumin (BSA). 0.1M phosphate buffer, pH 7.2, in a total volume of 2.7 mL. Measured amounts of compounds 5 to be tested for inhibitory activity were added in additional 0.1M phosphate buffer to a total volume of 3 mL. After 72 hours at 0°-5°, 1 mL of the enzyme/inhibitor mixture was treated with 4 μL of 0.2M (L)-leucine-β-napthylamide in dimethylsulfoxide, and the rate of increase of fluorescence at 410 nm, while exciting at 310 nm. was measured. Control experiments were performed identically, except no inhibitor was present. The concentration of the selected compound 5 observed to decrease reaction rates by one-half was used to determine the value of IC50 for each compound. This was accomplished by subtracting one-half the concentration of enzyme present in the sample mixtures (1.6×10^-9 M) from the inhibitor concentration observed to decrease reaction rates by one-half.

[2] = molecular target: T2, Leucine aminopeptidase (cytosolic) (LAPC) (Sus scrofa, UniProt P28839); assay: IC50 with leucine aminopeptidase (cytosolic); type: biochemical, hog; settings: 112 hours at 0°-5°, pH 8.5, substrate (L)-leucine-p-nitroanilide, absorption at 405 nm
T2 construct: (LAPC) from hog kidney; from tissue; host or cells: hog kidney
T2 sequence (P28839 33-519 limits assumed): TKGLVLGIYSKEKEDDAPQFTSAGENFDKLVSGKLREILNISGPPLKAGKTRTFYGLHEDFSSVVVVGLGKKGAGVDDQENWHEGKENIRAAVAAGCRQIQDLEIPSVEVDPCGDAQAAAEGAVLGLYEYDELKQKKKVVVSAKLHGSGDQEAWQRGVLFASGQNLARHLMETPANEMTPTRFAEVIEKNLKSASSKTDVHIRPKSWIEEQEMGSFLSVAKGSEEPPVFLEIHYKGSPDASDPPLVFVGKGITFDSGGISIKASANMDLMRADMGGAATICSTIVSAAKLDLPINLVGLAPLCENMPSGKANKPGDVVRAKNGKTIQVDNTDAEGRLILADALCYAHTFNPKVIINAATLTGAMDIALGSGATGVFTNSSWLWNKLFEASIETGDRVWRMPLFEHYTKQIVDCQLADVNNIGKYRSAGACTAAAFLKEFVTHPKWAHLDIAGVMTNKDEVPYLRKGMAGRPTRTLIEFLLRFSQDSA
From the text: as §1, §2
Assay mixtures were prepared, containing 10×10^-8 M LAPC, 1 mg/mL BSA, 0.025M MgCl2 and 0.01M tris-HCl buffer, pH 8.5, in a total volume of 2.7 mL. Varying amounts of selected compounds 5, dissolved in the same buffer, were added to make a final volume of 3.0 mL. After storage for 112 hours at 0°-5°, 1 mL of this mixture was treated with 25 μL of a 0.1M (L)-leucine-p-nitroanilide in dimethylsulfoxide, and the rate of increase of absorption at 405 nm was measured. IC50 values were calculated as in Example 26, above.

[3] = molecular target: Human enkephalin-degrading aminopeptidase (HEDA); assay: IC50 with human enkephalin-degrading aminopeptidase; type: biochemical; settings: incubated at 37° for 2 hours, pH 7.8, substrate leu-enkephalin, HPLC
From the text: An IC50 value represents an approximation of the concentration of enzyme inhibitor required to inhibit enzyme activity by fifty percent. These values represent acceptable approximations of the inhibition constant KI, the dissociation constant in the following equation: [formula] where [E] is the concentration of enzyme, [I] is the concentration of inhibitor and [EI] is the concentration of enzyme/inhibitor complex. Determination of IC50 values for LAPC and LAPM was accomplished by spectrophotometrically or fluorometrically following the rate of formation of p-nitroaniline or β-naphthylamine from hydrolysis of (L)-leucine-p-nitroanilide or (L)-leucine-β-napthylamide, respectively, in the presence of active enzyme. IC50 values for HEDA were determined by monitoring, via high pressure liquid chromatography, the formation of […]-enkephalin from leu-enkephalin. […] At this point, 15 μL of a 10 mM solution of leu-enkephalin, acetic acid salt in 2 mM phosphate buffer, pH 7.8, were added to each sample mixture. […] Detection was by ultraviolet absorption at 215 nm. A ratio of a peak corresponding to ([…])-enkephalin at about […] and a peak corresponding to leu-enkephalin at about 3.9 min. indicated reaction progress. The rate of increase of this ratio corresponded to the rate of enzyme hydrolysis of substrate leu-enkephalin.

α-chymotrypsin = α-chymotrypsin (Bos taurus, UniProt P00766); settings: Matteson et al., J. Am. Chem. Soc. 103:5241 (1981); cited from earlier work
subtilisin = settings: Philipp, et al., FEBS Letters 133:36 (1971); cited from earlier work

Structure (SMILES) | IC50 [1] | IC50 [2] | IC50 [3] | further results
CC(C)CB1OC(C)(C)C(C)(C)O1 [2 (R=CH3 CH(CH3)2), 4,4,5,5-tetramethyl-2-(2-methylpropyl)-1,3,2-dioxaborolane] |  |  |  | Leaf Hopper, % control (Leaf Hopper): 50%
CB1OC(C)(C)C(C)(C)O1 [2 (R=CH3), 2,4,4,5,5-pentamethyl-1,3,2-dioxaborolane] |  |  |  | Ant Feeding, % control (Ant): 31%
CCC(C)B1OC(C)(C)C(C)(C)O1 (stereo not drawn) [2 (R=CH(CH3)C2 H5), 2-(1-methylpropyl)-4,4,5,5-tetramethyl-1,3,2-dioxaborolane] |  |  |  | Bollworm, % control (Bollworm): 20%
CC1(C)OB(Cc2ccccc2)OC1(C)C [2 (R=CHC6 H5), 4,4,5,5-tetramethyl-2-(phenylmethyl)-1,3,2-dioxaborolane] |  |  |  | Mite, % control (Mite): 70%
CC(C)CC(Cl)B1OC(C)(C)C(C)(C)O1 (stereo not drawn) [3 (R=CH3 CH(CH3)2), 2-(1-chloro-3-methylbutyl)-4,4,5,5-tetramethyl-1,3,2-dioxaborolane] |  |  |  | Mite, % control (Mite): 64%
CCC(C)C(Cl)B1OC(C)(C)C(C)(C)O1 (stereo not drawn) [3 (R=CH(CH3)C2 H5), 2-(1-chloro-2-methylbutyl)-4,4,5,5-tetramethyl-1,3,2-dioxaborolane] |  |  |  | Bean aphid, % control (Bean aphid): 39%
CC1(C)OB(C(Cl)Cc2ccccc2)OC1(C)C (stereo not drawn) [3 (R=CHC6 H5), 2-(1-chloro-2-phenylethyl)-4,4,5,5-tetramethyl-1,3,2-dioxaborolane] |  |  |  | Bean aphid, % control (Bean aphid): 48%
CC1(C)OB(C(N)Cc2ccccc2)OC1(C)C (stereo not drawn) [5 (R=CH2 C6 H5), 4,4,5,5-tetramethyl-α-(phenylmethyl)-1,3,2-dioxoborolane-2-methanamine, trifluoroacetic acid salt] | 0.2 nM | 10 nM | 5.2 nM | 
CC(C)CC(N)B1OC(C)(C)C(C)(C)O1 (stereo not drawn) [5 (R=CH2 CH(CH3)2), 3-methyl-1-(4,4,5,5-tetramethyl-1,3,2-dioxaborolane-2-yl)-1-butamine, trifluoroacetic acid salt] | 1.2 nM | 150 nM | 7.4 nM | 
CC(N)B1OC(C)(C)C(C)(C)O1 (stereo not drawn) [5 (R=CH3), α,4,4,5,5,pentamethyl-1,3,2-dioxoborolane-2-methanamine, trifluoroacetic acid salt] | 6.4 nM | 30000 nM | 71 nM | 
CC(C)C(N)B1OC(C)(C)C(C)(C)O1 (stereo not drawn) [5 (R=CH(CH3)2), 4,4,5,5-tetramethyl-α-(1-methylethyl)-1,3,2-dioxaborolane-2-methanamine, trifluoroacetic acid salt] | 2.15 nM | 70 nM | 42 nM | 
CCC(C)C(N)B1OC(C)(C)C(C)(C)O1 (stereo not drawn) [5 (R=CH(CH3)C2 H5), 4,4,5,5-tetramethyl-α-(1-methylpropyl)-1,3,2-dioxaborolane-2-methanamine, trifluoroacetic acid salt] | 2.2 nM | 30 nM | 41 nM | 
CC(=O)NC(Cc1ccccc1)B(O)O (stereo not drawn) [IV] |  |  |  | inhibition of α-chymotrypsin (α-chymotrypsin): observed to inhibit; inhibition of subtilisin (subtilisin): inhibited
